Data as given in patent US3954733A, “Naphthyridine-3-carboxamido-benzylpenicillins and salts thereof” (Sumitomo Chemical Company, Limited, priority 1973, dated 1976).
≈ marks a conversion by molar mass, not a printed value.

How the values were obtained:
Pseudomonas = conditions: known penicillins and N-acyl ampicillins; cited from earlier work
[1] = system: gram-positive and gram-negative bacteria; conditions: known penicillins and N-acyl ampicillins; cited from earlier work
Escherichia coli NIHJ = test: minimal inhibitory concentration, agar dilution method; format: cell-based
Text: (§1) When determined according to the agar dilution method, the penicillins (I) afford the minimal inhibitory concentrations against test microorganisms as shown in Table 2.

[2] = system: Staphylococcus aureus 209P; test: as above; format: cell-based
Text: as §1

Proteus vulgaris HV19 = test: as above; format: cell-based
Proteus miravilis GN2425 = test: as above; format: cell-based
[3] = system: Pseudomonas aeruginosa 104; test: as above; format: cell-based
Text: as §1

MIC (Escherichia coli NIHJ) [µg/mL]	MIC [2] [µg/mL]	MIC (Proteus vulgaris HV19) [µg/mL]	MIC (Proteus miravilis GN2425) [µg/mL]	MIC [3] [µg/mL]	Compound	antimicrobial activity against Pseudomonas (Pseudomonas)	growth inhibition / antimicrobial activity against gram-positive and gram-negative bacteria [1]
					6-(α-amino-isothiazolylacetamido)penicillanic acid	do not exert any appreciable antimicrobial activity against Pseudomonas	inhibit the growth of various gram-positive and gram-negative bacteria
3.13 (≈ 4.21 µM)	1.56 (≈ 2.1 µM)	0.05 (≈ 0.0672 µM)	3.13 (≈ 4.21 µM)	3.13 (≈ 4.21 µM)	CCOC(=O)Oc1c(C(=O)N[C@@H](C(=O)N[C@@H]2C(=O)N3[C@@H]2SC(C)(C)[C@@H]3C(=O)O)c2ccc(OC(=O)OCc3ccccc3)cc2)cnc2cccnc12 [Example 5, D-α-(4-ethoxycarbonyloxy-1,5-naphthyridine-3-carboxamido)-p-benzyloxycarbonyloxybenzylpenicillin]		
1.56 (≈ 2.83 µM)	0.78 (≈ 1.41 µM)	0.05 (≈ 0.0906 µM)	3.13 (≈ 5.67 µM)	1.56 (≈ 2.83 µM)	Cc1ccc2c(O)c(C(=O)N[C@@H](C(=O)N[C@@H]3C(=O)N4[C@@H]3SC(C)(C)[C@@H]4C(=O)O)c3ccc(O)cc3)cnc2n1 [Example 7, D-α-(4-hydroxy-7-methyl-1,8-naphthyridine-3-carboxamido)-p-hydroxybenzylpenicillin]		
3.13 (≈ 5.13 µM)	1.56 (≈ 2.56 µM)	0.05 (≈ 0.082 µM)	3.13 (≈ 5.13 µM)	3.13 (≈ 5.13 µM)	CCOC(=O)Oc1ccc([C@@H](NC(=O)c2cnc3cccnc3c2O)C(=O)N[C@@H]2C(=O)N3[C@@H]2SC(C)(C)[C@@H]3C(=O)O)cc1 [Example 9, D-α-(4-hydroxy-1,5-naphthyridine-3-carboxamido)-p-ethoxycarbonyloxybenzylpenicillin]		
3.13 (≈ 4.6 µM)	0.78 (≈ 1.15 µM)	0.2 (≈ 0.294 µM)	3.13 (≈ 4.6 µM)	6.25 (≈ 9.18 µM)	CCOC(=O)Oc1ccc([C@@H](NC(=O)c2cnc3ccccc3c2OC(=O)OCC)C(=O)N[C@@H]2C(=O)N3[C@@H]2SC(C)(C)[C@@H]3C(=O)O)cc1 [Example 12]		
6.25 (≈ 11.6 µM)	0.78 (≈ 1.45 µM)	0.2 (≈ 0.373 µM)	3.13 (≈ 5.83 µM)	6.25 (≈ 11.6 µM)	CC1(C)S[C@@H]2[C@H](NC(=O)[C@H](NC(=O)c3cnc4ccccc4c3O)c3cccc(O)c3)C(=O)N2[C@H]1C(=O)O [Example 13]		
3.13 (≈ 5.02 µM)	1.56 (≈ 2.5 µM)	0.1 (≈ 0.16 µM)	6.25 (≈ 10 µM)	3.13 (≈ 5.02 µM)	CCOC(=O)Oc1ccc([C@@H](NC(=O)c2cnc3nc(C)ccc3c2O)C(=O)N[C@@H]2C(=O)N3[C@@H]2SC(C)(C)[C@@H]3C(=O)O)cc1 [Example 15]		
3.13 (≈ 5.82 µM)	1.56 (≈ 2.9 µM)	0.05 (≈ 0.093 µM)	3.13 (≈ 5.82 µM)	3.13 (≈ 5.82 µM)	CC1(C)S[C@@H]2[C@H](NC(=O)C(NC(=O)c3cnc4cccnc4c3O)c3cccc(O)c3)C(=O)N2[C@H]1C(=O)O (stereo partly drawn) [Example 16]		
1.56 (≈ 2.38 µM)	0.78 (≈ 1.19 µM)	0.1 (≈ 0.153 µM)	1.56 (≈ 2.38 µM)	1.56 (≈ 2.38 µM)	CCOC(=O)Oc1ccc([C@@H](NC(=O)c2cnc3ccc(SC)nc3c2O)C(=O)N[C@@H]2C(=O)N3[C@@H]2SC(C)(C)[C@@H]3C(=O)O)cc1 [Example 17]		
1.56 (≈ 2.83 µM)	0.78 (≈ 1.41 µM)	0.05 (≈ 0.0906 µM)	1.56 (≈ 2.83 µM)	1.56 (≈ 2.83 µM)	Cc1ccc2ncc(C(=O)N[C@@H](C(=O)N[C@@H]3C(=O)N4[C@@H]3SC(C)(C)[C@@H]4C(=O)O)c3ccc(O)cc3)c(O)c2n1 [Example 18]		
3.13 (≈ 5.51 µM)	0.78 (≈ 1.37 µM)	0.05 (≈ 0.0881 µM)	3.13 (≈ 5.51 µM)	3.13 (≈ 5.51 µM)	COc1ccc2ncc(C(=O)N[C@@H](C(=O)N[C@@H]3C(=O)N4[C@@H]3SC(C)(C)[C@@H]4C(=O)O)c3ccc(O)cc3)c(O)c2n1 [Example 19]		
1.56 (≈ 2.82 µM)	0.78 (≈ 1.41 µM)	0.05 (≈ 0.0903 µM)	1.56 (≈ 2.82 µM)	3.13 (≈ 5.65 µM)	CC1(C)S[C@@H]2[C@H](NC(=O)[C@H](NC(=O)c3cnc4ccc(O)nc4c3O)c3ccc(O)cc3)C(=O)N2[C@H]1C(=O)O [Example 22]		
3.13 (≈ 4.69 µM)	1.56 (≈ 2.34 µM)	0.2 (≈ 0.3 µM)	3.13 (≈ 4.69 µM)	3.13 (≈ 4.69 µM)	CCOC(=O)Oc1ccc([C@@H](NC(=O)c2cnc3ccc(NC(C)=O)nc3c2O)C(=O)N[C@@H]2C(=O)N3[C@@H]2SC(C)(C)[C@@H]3C(=O)O)cc1 [Example 23]		
1.56 (≈ 2.82 µM)	1.56 (≈ 2.82 µM)	0.05 (≈ 0.0905 µM)	3.13 (≈ 5.66 µM)	3.13 (≈ 5.66 µM)	CC1(C)S[C@@H]2[C@H](NC(=O)[C@H](NC(=O)c3cnc4ccc(N)nc4c3O)c3ccc(O)cc3)C(=O)N2[C@H]1C(=O)O [Example 24]		
3.13 (≈ 4.56 µM)	0.78 (≈ 1.14 µM)	0.05 (≈ 0.0728 µM)	3.13 (≈ 4.56 µM)	3.13 (≈ 4.56 µM)	CCOC(=O)Oc1ccc([C@@H](NC(=O)c2cnc3ccc(N(C)C)nc3c2O)C(=O)N[C@@H]2C(=O)N3[C@@H]2SC(C)(C)[C@@H]3C(=O)O)cc1Cl [Example 25]		

Compound	MIC (Escherichia coli NIHJ) [µg/mL]	MIC [2] [µg/mL]	MIC (Proteus vulgaris HV19) [µg/mL]	MIC (Proteus miravilis GN2425) [µg/mL]	MIC [3] [µg/mL]	antimicrobial activity against Pseudomonas (Pseudomonas)	growth inhibition / antimicrobial activity against gram-positive and gram-negative bacteria [1]
CC1(C)S[C@@H]2C(NC(=O)C(N)c3ccccc3)C(=O)N2[C@H]1C(=O)O (stereo partly drawn) [Ampicillin, 6-(α-amino-phenylacetamido)penicillanic acid, reference compound]	6.26 (≈ 17.9 µM)	0.1 (≈ 0.286 µM)					inhibit the growth of various gram-positive and gram-negative bacteria
